From PMC6150245 (Molecules : A Journal of Synthetic Chemistry and Natural …, 2017)
Values after ≈ are worked out from the molar mass of the structure shown. Bridge positions count the residues as written; N and C are the ends. Peptide text beside a SMILES is read from it. I, II: the chains in the order shown.

Experiments:
C. albicans ATCC18804 = test: Antifungal MIC, microdilution in RPMI 1640; assay type: cell-based, Candida albicans; conditions: C. albicans ATCC18804, RPMI 1640, 48 h, 37 °C, peptides 128-1 µM, triplicate
Experimental: (§1) The minimum inhibitory concentrations (MIC) were determined following the Clinical and Laboratory Standards Institute (CLSI) recommendations. Antibacterial and antifungal activity tests were performed using the microdilution method. For initial screening, peptides were tested against C. albicans ATCC18804, E. coli ATCC25922, and S. aureus ATCC25923. Briefly, bacterial cells in MH broth (80 μL aliquots containing 1.5 × 10^7 CFU) were incubated with synthetic peptides (serial dilution from 512 to 1 μM) dissolved in Milli-Q water. After incubation for 24 h at 37 °C, the microtiter plates were analyzed visually by addition of resazurin. For the antifungal assays, the culture medium was RPMI 1640 buffered with L-glutamine (pH 7.2), 0.165 M morpholinepropanesulfonic acid (MOPS), and 2% glucose. Cell suspensions (final concentration of 1 × 10^3–2.5 × 10^3 CFU/mL) were inoculated on a microdilution plate previously prepared with serially diluted synthetic peptides (128–1 μM). The plates were incubated for 48 h at 37 °C. Each assay was performed in triplicates. Additionally, amphotericin B and fluconazole were used as the control drugs. MIC was defined as the lowest concentration of peptide at which no growth was detected.

E. coli ATCC35218 = assay type: cell-based, Escherichia coli; conditions: for MIC: E. coli ATCC35218, CAMHB, 24 h, 37 °C, duplicate; for MBC: E. coli ATCC35218, sub-culture on MH agar, 99.9% death
Experimental: (§2) After confirming antibacterial activity, the peptides were tested against gram-positive and gram-negative multidrug-resistant bacteria, including strains of clinical origin. The peptides, p-BthTX-I, des-Lys^12/(p-BthTX-I)2, and Lys^13-(p-BthTX-I)2 were serially diluted (512–1 μM) in cation-adjusted BBL MH II broth (CAMHB; Becton, Dickson and Co., Sparks, MD, USA) as described by CLSI. Bacteria at 5.0 × 10^5 CFU/mL were added to the media and incubated for 24 h at 37 °C. […] Assays were performed in duplicates, and sterile broth was used as the negative control. To determine the minimal bactericidal concentration (MBC), 100 µL from each well of the MIC assay plates that inhibited bacterial growth were sub-cultured onto MH agar (MHA) plates. […] If the ratio of MBC/MIC was >4, the activity of the peptide was considered bacteriostatic, as described previously.

E. coli CA4 = assay type: cell-based, Escherichia coli; conditions: for MIC: E. coli CA4 (commensal), CAMHB, 24 h, 37 °C, duplicate; for MBC: E. coli CA4, sub-culture on MH agar, 99.9% death
Experimental: as §2

S. epidermidis ATCC35984 = assay type: cell-based, Staphylococcus epidermidis; conditions: for MIC: S. epidermidis ATCC35984, CAMHB, 24 h, 37 °C, duplicate; for MBC: S. epidermidis ATCC35984, sub-culture on MH agar, 99.9% death
Experimental: as §2

S. aureus ATCC25923 = test: MIC, microdilution in MH broth (initial screening); assay type: cell-based, Staphylococcus aureus; conditions: 24 h, 37 °C, resazurin, triplicate
Experimental: as §1

S. aureus SA90 = assay type: cell-based, Staphylococcus aureus
Experimental: as §2

K. pneumoniae ATCC700603 = assay type: cell-based, Klebsiella pneumoniae
Experimental: as §2

Structure (SMILES) | MIC (C. albicans ATCC18804) [µM] | MIC (E. coli ATCC35218) [µM] | MBC (E. coli ATCC35218) [µM] | MIC (E. coli CA4) [µM] | MBC (E. coli CA4) [µM] | MIC (S. epidermidis ATCC35984) [µM] | MBC (S. epidermidis ATCC35984) [µM] | MIC (S. aureus ATCC25923) [µM] | MIC (S. aureus SA90; S. aureus SA90 (MRSA), CAMHB, 24 h, 37 °C) [µM] | MBC (S. aureus SA90; S. aureus SA90, sub-culture on MH agar, 99.9% death) [µM] | MIC (K. pneumoniae ATCC700603; K. pneumoniae ATCC700603 (SHV-18), CAMHB, 24 h, 37 °C) [µM] | MBC (K. pneumoniae ATCC700603; K. pneumoniae ATCC700603, sub-culture on MH agar, 99.9% death) [µM]
CC(C)C[C@H](NC(=O)[C@H](Cc1c[nH]cn1)NC(=O)[C@H](Cc1ccc(O)cc1)NC(=O)[C@H](CCCNC(=N)N)NC(=O)[C@H](Cc1ccc(O)cc1)NC(=O)[C@H](CCCCN)NC(=O)[C@@H](N)CCCCN)C(=O)N[C@@H](CCCCN)C(=O)N1CCC[C@H]1C(=O)N[C@@H](Cc1ccccc1)C(=O)N[C@@H](CSSC[C@H](NC(=O)[C@H](Cc1ccccc1)NC(=O)[C@@H]1CCCN1C(=O)[C@H](CCCCN)NC(=O)[C@H](CC(C)C)NC(=O)[C@H](Cc1c[nH]cn1)NC(=O)[C@H](Cc1ccc(O)cc1)NC(=O)[C@H](CCCNC(=N)N)NC(=O)[C@H](Cc1ccc(O)cc1)NC(=O)[C@H](CCCCN)NC(=O)[C@@H](N)CCCCN)C(=O)N[C@@H](CCCCN)C(=O)N[C@@H](CCCCN)C(=O)O)C(=O)N[C@@H](CCCCN)C(=O)N[C@@H](CCCCN)C(=O)O [(p-BthTX-I)2] | >128 | 512 (≈ 1780 µg/mL) | 512 (≈ 1780 µg/mL) | 256 (≈ 890 µg/mL) | 512 (≈ 1780 µg/mL) | 16 (≈ 55.6 µg/mL) | 64 (≈ 222 µg/mL) | 64 (≈ 222 µg/mL) | 128 (≈ 445 µg/mL) | 256 (≈ 890 µg/mL) | 64 (≈ 222 µg/mL) | 64 (≈ 222 µg/mL)
CC(C)C[C@H](NC(=O)[C@H](Cc1c[nH]cn1)NC(=O)[C@H](Cc1ccc(O)cc1)NC(=O)[C@H](CCCNC(=N)N)NC(=O)[C@H](Cc1ccc(O)cc1)NC(=O)[C@H](CCCCN)NC(=O)[C@@H](N)CCCCN)C(=O)N[C@@H](CCCCN)C(=O)N1CCC[C@H]1C(=O)N[C@@H](Cc1ccccc1)C(=O)N[C@@H](CSSC[C@H](NC(=O)[C@H](Cc1ccccc1)NC(=O)[C@@H]1CCCN1C(=O)[C@H](CCCCN)NC(=O)[C@H](CC(C)C)NC(=O)[C@H](Cc1c[nH]cn1)NC(=O)[C@H](Cc1ccc(O)cc1)NC(=O)[C@H](CCCNC(=N)N)NC(=O)[C@H](Cc1ccc(O)cc1)NC(=O)[C@H](CCCCN)NC(=O)[C@@H](N)CCCCN)C(=O)O)C(=O)O [des-Lys^12/Lys^13-(p-BthTX-I)2] (I: H-KKYRYHLKPFC-OH / II: H-KKYRYHLKPFC-OH; disulfide I:11-II:11) | >128 | 64 (≈ 190 µg/mL) | 256 (≈ 759 µg/mL) | 64 (≈ 190 µg/mL) | 128 (≈ 379 µg/mL) | 32 (≈ 94.8 µg/mL) | 32 (≈ 94.8 µg/mL) | 128 (≈ 379 µg/mL) | – | – | – | –
